Among the data in ChEMBL document CHEMBL1140607, “Pharmacophore mapping of diverse classes of farnesyltransferase inhibitors” (Bioorg Med Chem Lett, 2007) are IC50 values, retold here.

This assay can be described thus: Inhibition of FTase.
A word on the IC50: it is the concentration that inhibits the measured activity by half. Read a low IC50 as greater potency. `Cn1cncc1C(OCc1ccc(C#N)cc1NS(=O)(=O)c1cccs1)c1ccc(C#N)cc1` (configuration not stated) showed an IC50 of 0.88 nM.

`Cn1cncc1C(OCc1ccc(C#N)cc1-c1ccc2c(c1)OC(F)(F)O2)c1ccc(C#N)cc1` (configuration not stated) had an IC50 of 1.1 nM.

Take `COCc1cccc(-c2cc(C#N)ccc2COC(c2ccc(C#N)cc2)c2cncn2C)c1` (configuration not stated): 0.19 nM corresponded to half-maximal inhibition (IC50).

As to `N#Cc1ccc(COCc2cncn2Cc2ccc(C#N)cc2-c2cccc3ccccc23)cc1`, the IC50 is 0.96 nM. Compared with the last molecule, the IC50 is about 5.1-fold higher.

As for `N#Cc1ccc(Cn2cncc2COCc2ccc(C#N)cc2-c2cccc(OC(F)(F)F)c2)cc1`, the concentration for half-maximal inhibition (IC50) amounted to 0.49 nM.

In turn, `Cc1ccccc1-c1cc(C(OCc2cccc(C(F)(F)F)c2)c2cncn2C)ccc1C#N` (configuration not stated) yielded a 50% inhibitory concentration (IC50) of 29 nM.

Regarding `CCOc1cccc(-c2cc(C#N)ccc2COCc2cncn2Cc2ccc(C#N)cc2)c1`, the concentration for half-maximal inhibition (IC50) was 0.27 nM.

As for `Cn1c(=O)cc(-c2cccc(Cl)c2)c2cc(Cn3cncc3Cn3ccc(C(=O)N4CCOCC4)c3)ccc21`, the midpoint of inhibition, the IC50, lay at 1000 nM.

For `CCOc1cccc(-c2cc(C#N)ccc2C#CC(O)(c2ccc(C#N)cc2)c2cncn2C)c1` (configuration not stated), it took 0.73 nM to reach half-maximal inhibition (IC50).

For `N#Cc1ccc(OCc2cn(Cc3ccc(C#N)c(-c4ccc5ccccc5c4)c3)cn2)cc1`, the half-maximal inhibitory concentration (IC50) worked out at 0.32 nM.

The molecule `C[n+]1cccc(NC(=O)C2CN(C3c4ccc(Cl)cc4CCc4cc(Br)cnc43)CCN2C(=O)NC2CC2)c1` (configuration not stated) had a half-maximal inhibitory concentration (IC50) of 51 nM.

Regarding `Cc1ccc(CNC(=O)C2CN(C3c4ccc(Cl)cc4CCc4cc(Br)cnc43)CCN2C(=O)NC2CCCCC2)cn1` (configuration not stated), it took 61 nM to reach half-maximal inhibition (IC50).

`COc1cccc(-c2cc(N)ccc2COC(c2ccc(C#N)cc2)c2cncn2C)c1` (configuration not stated) yielded a concentration for half-maximal inhibition (IC50) of 40 nM.

Molecule `CCOc1cccc(-c2cc(C#N)ccc2CNCc2cncn2Cc2ccc(C#N)cc2)c1` registered an IC50 of 0.014 nM.

In turn, `Cn1cncc1C(OCc1ccc(C#N)cc1)c1ccc(C#N)c(-c2cc3ccccc3s2)c1` (configuration not stated) displayed an IC50 of 160 nM.

With `O=C(Nc1nncs1)C1CN(C2c3ccc(Cl)cc3CCc3cc(Br)cnc32)CCN1C(=O)NC1CCCCC1` (configuration not stated), the 50% inhibitory concentration (IC50) was found to be 490 nM.

Turning to `Cn1cncc1C(O)(c1ccc(Cl)cc1)c1ccc2c(c1)n(Cc1cccc(Cl)c1)c(=O)n2C` (configuration not stated), inhibition was half-maximal at 150 nM (IC50).

As for `CCOc1cccc(-n2c(=O)n(C)c3ccc(C(O)(c4ccc(C#N)cc4)c4cncn4C)cc32)c1` (configuration not stated), the half-inhibitory concentration (IC50) was determined as 0.5 nM. This IC50 is about 300-fold lower than that of the molecule before.

For the molecule `Cn1cncc1C(O)(c1ccc(C#N)cc1)c1ccc2c(c1)n(-c1cccc(Cl)c1)c(=O)n2C` (configuration not stated), half-maximal inhibition (IC50) was put at 1.4 nM. Against the preceding molecule, the IC50 is about 2.8-fold higher.

As to `CS(=O)(=O)Cn1cncc1COCc1ccc(C#N)cc1-c1cccc(Cl)c1`, the midpoint of inhibition, the IC50, lay at 96 nM.

Molecule `CCCCC(=O)N1CCN(C2c3ccc(Cl)cc3CCc3cc(Br)ccc32)CC1C(=O)NCc1ccc[n+]([O-])c1` (configuration not stated) displayed an IC50 of 1800 nM.

`N#Cc1ccc(Cn2cncc2Cn2ccc3cc(-c4cccc5ccccc45)c(C#N)cc32)cc1` showed a half-maximal inhibitory concentration (IC50) of 0.15 nM.
